The conditions of data set [1]: cited from earlier work.
A further data set concerns rhesus PSMA. Briefly: IFNγ ELISPOT from PBMCs, rhesus PSMA adenovirus vaccine with subcutaneous anti-CTLA-4 antibody. Format: in vivo, Indian rhesus macaques. As for the experimental part: Animal Treatment and Sample Collection. Five groups of male Indian rhesus macaques, seven (#1 to 7) per each test group, were immunized with an adenovirus encoding a rhesus PSMA modified polypeptide delivered by bilateral intramuscular injections (2× 5e10 V.P.). Immediately following the adenovirus injections, group 1 received vehicle, and groups 2 to 4 received bilateral subcutaneous injections of anti-CTLA-4 antibody (CP-675, 206) at doses 2× 25 mg, 2× 16.7 mg and 2× 8.4 mg respectively in proximity to the vaccine draining lymph node.
Nine days after the immunization, peripheral blood mononuclear cells (PBMCs) were isolated from each animal and were subjected to an IFNγ ELISPOT assay to measure the rhesus PSMA specific T cell responses. Briefly, 4e5 PBMCs from individual animals were plated per well with pools of rhesus PSMA specific peptides (P1, P2, P3 or R1+R2 defined in Table 24A) or nonspecific control peptides (human HER2 peptide pool) each at 2 ug/ml in IFN[…] ELISPOT plates. The plates were incubated for 16 hrs at 37° C. and 5% CO2 and washed and developed after incubation as per manufacturer's instruction. The number of IFNγ spot forming cells (SFC) was counted by CTL reader. Each condition was performed in duplicates. The average of the duplicates from the background adjusted SFC of the rhesus PSMA specific peptide pools was normalized to the response in 1e6 PBMCs.
IFNγ ELISPOT Assay Procedure. A capture antibody specific to IFNγ ([…]BD Bioscience, #51-2525kc) is coated onto a polyvinylidene fluoride (PVDF) membrane in a microplate overnight at 4° C. The plate is blocked with serum/protein to prevent nonspecific binding to the antibody. After blocking, effector cells (such as splenocytes isolated from immunized mice or PBMCs isolated from rhesus macaques) and targets (such as PSMA peptides from peptide library, target cells pulsed with antigen specific peptides or tumor cells expressing the relevant antigens) are added to the wells and incubated overnight at 37° C. in a 5% CO2 incubator. […]

For data set [2] the following is noted: cited from earlier work. The source holds these as a separate data set.
For a further data set, the system named is 293 cells. Briefly: Expression of PSMA constructs in mammalian 293 cells by FACS. Format: cell-based. As for the experimental part: The expression of the PSMA cytosolic, secreted, and modified antigens was determined by FACS. Mammalian 293 cells were transfected with the PJV7563 PMED vectors encoding the various immunogenic PSMA polypeptides. Three days later, the 293 cells were stained with mouse anti-PSMA antibody, followed with a fluorescent conjugated (FITC) rat anti-mouse secondary antibody.

Where two headings read alike, the source gives them in different places.

For the substance 5′ TCGTCGTTTTGTCGTTTTGTCGTT3′ [CpG7909], in data set [1] (single dose subcutaneous), the dose limiting toxicity entry was “myalgia and constitutional effects”; the “maximum tolerated dose (MTD)” value is 0.45 mg/kg. Further, in data set [1] (single intravenous dose), the “dose well tolerated with no clinical effects and no significant toxicity” value was “up to 1.05 mg/kg”.

On to “CP-675,206: fully human IgG2 anti-CTLA-4 monoclonal antibody, CAS 745013-59-6”, for which the “vaccine induced immune response compared to vaccine alone” value is on record as “significantly enhanced” with rhesus PSMA (16.7 mg subcutaneous (group 4), P=0.05); “significantly enhanced” in the data set with rhesus PSMA (33.4 mg subcutaneous (group 3), P=0.004); “significantly enhanced” in the data set on rhesus PSMA (dose of 50 mg subcutaneous (group 2), P=0.001 by Student's T-test).

As to “CP-870893: fully human agonistic CD40 monoclonal antibody, heavy and light chain SEQ ID NO: 40 and 41”, the dose-limiting toxicities result in data set [2] (human, in vivo, iv) is “grade 3 CRS and grade 3 urticaria”. Moreover, the “maximum tolerated dose (MTD)” value in data set [2] (phase I clinical study, intravenous infusion) is 0.2 mg/kg.

Take “human PSMA modified antigen (SEQ ID NO: 9): immunogenic polypeptide of amino acids 15-750 of human PSMA, membrane-bound, expressed from DNA construct in PJV7563 vector”: in the data set with 293 cells (293 cells transfected with PJV7563 vector, stained three days later with mouse anti-PSMA antibody), the “Average mean fluorescent intensity” value amounted to 12270. The “expression on the cell surface” value in the data set on 293 cells (transfected 293 cells, FACS) is reported as “expressed on the cell surface”.

Source of the values: patent publication US11173196B2, “Vectors for expression of prostate-associated antigens” (Pfizer Inc., priority 2013, dated 2021).
